Measured values from article PMC10714400, “Antimicrobial Peptide–Peptoid Hybrids with and without Membrane Disruption” (ACS Infectious Diseases, 2023).
≈ marks a conversion by molar mass, not a printed value. Where two headings read alike, the source gives them in different places. Where a SMILES comes first, the peptide text is derived from it. [ ]: non-standard residue; d: D form. Nlys = NCCCCNCC(=O)O

Key:
A. baumannii ATCC19606 = system: A. baumannii ATCC19606
Method in brief: (§1)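 MTT added (20–30 min, room temperature); MIC read by eye as lowest concentration inhibiting visible growth (yellow). Polymyxin B positive control from 16 μg/mL.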

S. aureus COL (MRSA) = system: S. aureus COL (MRSA)
Method in brief: (§2)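 Using MTT as a visual viability dye, MICs were scored as the lowest concentration with no visible growth. Prior to staining, ~5 × 10^5 CFU per well grew in MH medium for ca. 18 h at 37 °C under static conditions.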

K. pneumoniae NCTC418 = system: K. pneumoniae NCTC418
Method in brief: as §1

E. cloacae = system: E. cloacae
Method in brief: as §2

[1] = system: ZEM-1A (clinical MDR P. aeruginosa isolate)
Method in brief: as §2

P. aeruginosa PAO1 = system: P. aeruginosa PAO1
Method in brief: as §2

PA14 4.13 (phoQ) = system: PA14 4.13 (phoQ)
Method in brief: as §2

K. pneumoniae OXA-48 = system: K. pneumoniae OXA-48
Method in brief: as §2

E. coli W3110 = system: E. coli W3110
Method in brief: as §2

[2] = system: ZEM9A (clinical MDR P. aeruginosa isolate)
Method in brief: as §2

PA14 4.18 (pmrB) = system: PA14 4.18 (pmrB)
Method in brief: as §2

PA14 2P4 (pmrB) = system: PA14 2P4 (pmrB)
Method in brief: as §2

[3] = system: human red blood cells (hRBC); assay: Minimum hemolytic concentration (MHC); format: cell-based
Excerpt: We also measured minimal hemolysis concentrations (MHC) on human red blood cells by serial 2-fold dilution as an indication of toxicity against eukaryotic cells (Table 1).

S. maltophilia = system: S. maltophilia
Method in brief: as §2

S. aureus Newman = conditions: Newman
Method in brief: as §2

P. aeruginosa PA14 = system: P. aeruginosa PA14
Method in brief: as §2

B. cenocepacia = conditions: pH 7.4
Method in brief: as §2

S. epidermis = system: S. epidermis
Method in brief: as §2

CC(C)C[C@H](NC(=O)[C@H](CC(C)C)NC(=O)[C@H](CC(C)C)NC(=O)[C@H](CCCCN)NC(=O)[C@H](CC(C)C)NC(=O)[C@H](CC(C)C)NC(=O)CN(CCCCN)C(=O)[C@H](CC(C)C)NC(=O)[C@H](CC(C)C)NC(=O)CN(CCCCN)C(=O)CNCCCCN)C(N)=O [EB6, kkLLkLLKLLL] (H-[Nlys][Nlys]LL[Nlys]LLKLLL-NH2)
MIC A. baumannii ATCC19606, full MH at pH 7.4 (A. baumannii ATCC19606; ATCC19606, 4 h, pH 7.4): 2 ug/mL | MIC A. baumannii ATCC19606 […] 7.4 (A. baumannii ATCC19606; Table S2, […] MH, pH 7.4): 2 µg/mL (≈ 1.51 µM) | MIC A. baumannii ATCC19606 […] 8.5 (A. baumannii ATCC19606; Table S2, […] MH, pH 8.5): 2 µg/mL (≈ 1.51 µM) | MIC A. baumannii ATCC19606 Full MH 7.4 (A. baumannii ATCC19606; Table S2, full MH, pH 7.4): 2 µg/mL (≈ 1.51 µM) | MIC A. baumannii ATCC19606 Full MH 8.5 (A. baumannii ATCC19606; Table S2, full MH, pH 8.5): 8 µg/mL (≈ 6.05 µM) | MIC S. aureus COL (MRSA), full MH at pH 7.4 (S. aureus COL (MRSA); COL, 4 h, pH 7.4): 8 ug/mL | MIC S. aureus COL (MRSA) […] 7.4 (S. aureus COL (MRSA); Table S2, […] MH, pH 7.4): 2 µg/mL (≈ 1.51 µM) | MIC S. aureus COL (MRSA) […] 8.5 (S. aureus COL (MRSA); Table S2, […] MH, pH 8.5): 2 µg/mL (≈ 1.51 µM) | MIC S. aureus COL (MRSA) Full MH 7.4 (S. aureus COL (MRSA); Table S2, full MH, pH 7.4): 8 µg/mL (≈ 6.05 µM) | MIC S. aureus COL (MRSA) Full MH 8.5 (S. aureus COL (MRSA); Table S2, full MH, pH 8.5): 16 µg/mL (≈ 12.1 µM) | MIC K. pneumoniae NCTC418, full MH at pH 7.4 (K. pneumoniae NCTC418; NCTC418, 4 h, pH 7.4): 8 ug/mL | MIC K. pneumoniae NCTC418, full MH at pH 8.5 (K. pneumoniae NCTC418; NCTC418, 4 h, pH 8.5): 12 ug/mL | MIC K. pneumoniae NCTC418 Full MH 8.5 (K. pneumoniae NCTC418; NCTC418, 4 h, pH 8.5): 8 to 16 µg/mL | MIC K. pneumoniae NCTC418 […] 7.4 (K. pneumoniae NCTC418; Table S2, […] MH, pH 7.4): 4 µg/mL (≈ 3.03 µM) | MIC K. pneumoniae NCTC418 […] 8.5 (K. pneumoniae NCTC418; Table S2, […] MH, pH 8.5): 2 µg/mL (≈ 1.51 µM) | MIC K. pneumoniae NCTC418 Full MH 7.4 (K. pneumoniae NCTC418; Table S2, full MH, pH 7.4): 8 µg/mL (≈ 6.05 µM) | MIC E. cloacae, full MH at pH 7.4 (E. cloacae; 4 h, pH 7.4): 4 ug/mL | MIC E. cloacae (E. cloacae; Table S3, […] MH at pH 8.5): 4 µg/mL (≈ 3.03 µM) | MIC P. aeruginosa ZEM-1A, […] MH at pH 8.5 ([1]; CSV, […] MH at pH 8.5): 3 ug/mL | MIC P. aeruginosa ZEM-1A, full MH at pH 7.4 ([1]; CSV, full MH at pH 7.4): 2 ug/mL | MIC ZEM-1A ([1]; MH pH 7.4, 16–20 h at 37 °C): 2 µg/mL (≈ 1.51 µM) | MIC P. aeruginosa ZEM-1A ([1]; Table S3, […] MH at pH 8.5): 2 to 4 µg/mL | MIC P. aeruginosa PAO1, full MH at pH 7.4 (P. aeruginosa PAO1; PAO1, 4 h, pH 7.4): 4 ug/mL | MIC P. aeruginosa PAO1 […] 7.4 (P. aeruginosa PAO1; Table S2, […] MH, pH 7.4): 2 µg/mL (≈ 1.51 µM) | MIC P. aeruginosa PAO1 […] 8.5 (P. aeruginosa PAO1; Table S2, […] MH, pH 8.5): 4 µg/mL (≈ 3.03 µM) | MIC P. aeruginosa PAO1 Full MH 7.4 (P. aeruginosa PAO1; Table S2, full MH, pH 7.4): 4 µg/mL (≈ 3.03 µM) | MIC P. aeruginosa PAO1 Full MH 8.5 (P. aeruginosa PAO1; Table S2, full MH, pH 8.5): 16 µg/mL (≈ 12.1 µM) | MIC P. aeruginosa PA14 4.13, […] MH at pH 8.5 (PA14 4.13 (phoQ); CSV, […] MH at pH 8.5): 2 ug/mL | MIC P. aeruginosa PA14 4.13, full MH at pH 7.4 (PA14 4.13 (phoQ); CSV, full MH at pH 7.4): 4 ug/mL | MIC PA14 4.13 (phoQ) (PA14 4.13 (phoQ); MH pH 7.4, 16–20 h at 37 °C): 4 µg/mL (≈ 3.03 µM) | MIC P. aeruginosa PA14 4.13 (PA14 4.13 (phoQ); Table S3, […] MH at pH 8.5): 2 µg/mL (≈ 1.51 µM) | MIC K. pneumoniae OXA-48, […] MH at pH 8.5 (K. pneumoniae OXA-48; CSV, […] MH at pH 8.5): 8 ug/mL | MIC K. pneumoniae OXA-48, full MH at pH 7.4 (K. pneumoniae OXA-48; CSV, full MH at pH 7.4): 8 ug/mL | MIC K. pneumoniae OXA-48 (K. pneumoniae OXA-48; Table S3, […] MH at pH 8.5): 8 µg/mL (≈ 6.05 µM) | MIC E. coli W3110, […] MH at pH 7.4 (E. coli W3110; CSV, […] MH at pH 7.4): 2 ug/mL | MIC E. coli W3110, […] MH at pH 8.5 (E. coli W3110; CSV, […] MH at pH 8.5): 2 ug/mL | MIC E. coli W3110, full MH at pH 7.4 (E. coli W3110; CSV, full MH at pH 7.4): 2 ug/mL | MIC E. coli W3110 […] 7.4 (E. coli W3110; Table S2, […] MH, pH 7.4): 2 µg/mL (≈ 1.51 µM) | MIC E. coli W3110 […] 8.5 (E. coli W3110; Table S2, […] MH, pH 8.5): 2 µg/mL (≈ 1.51 µM) | MIC E. coli W3110 Full MH 7.4 (E. coli W3110; Table S2, full MH, pH 7.4): 2 µg/mL (≈ 1.51 µM) | MIC E. coli W3110 Full MH 8.5 (E. coli W3110; Table S2, full MH, pH 8.5): 8 µg/mL (≈ 6.05 µM) | MIC E. coli W3110 […] (E. coli W3110; diluted MH ([…] MH, pH 8.5) per Table 1 footnote b, 16–20 h at 37 °C): 2 µg/mL (≈ 1.51 µM) | MIC P. aeruginosa ZEM9A, […] MH at pH 8.5 ([2]; CSV, […] MH at pH 8.5): 2 ug/mL | MIC P. aeruginosa ZEM9A, full MH at pH 7.4 ([2]; CSV, full MH at pH 7.4): 4 ug/mL | MIC ZEM9A ([2]; MH pH 7.4, 16–20 h at 37 °C): 4 µg/mL (≈ 3.03 µM) | MIC P. aeruginosa ZEM9A ([2]; Table S3, […] MH at pH 8.5): 2 µg/mL (≈ 1.51 µM) | MIC P. aeruginosa PA14 4.18, […] MH at pH 8.5 (PA14 4.18 (pmrB); CSV, […] MH at pH 8.5): 2 ug/mL | MIC P. aeruginosa PA14 4.18, full MH at pH 7.4 (PA14 4.18 (pmrB); CSV, full MH at pH 7.4): 16 ug/mL | MIC PA14 4.18 (pmrB) (PA14 4.18 (pmrB); MH pH 7.4, 16–20 h at 37 °C): 16 µg/mL (≈ 12.1 µM) | MIC P. aeruginosa PA14 4.18 (PA14 4.18 (pmrB); Table S3, […] MH at pH 8.5): 2 µg/mL (≈ 1.51 µM) | MIC P. aeruginosa PA14 2P4, […] MH at pH 8.5 (PA14 2P4 (pmrB); CSV, […] MH at pH 8.5): 2 ug/mL | MIC P. aeruginosa PA14 2P4, full MH at pH 7.4 (PA14 2P4 (pmrB); CSV, full MH at pH 7.4): 32 ug/mL | MIC PA14 2P4 (pmrB) (PA14 2P4 (pmrB); MH pH 7.4, 16–20 h at 37 °C): 32 µg/mL (≈ 24.2 µM) | MIC P. aeruginosa PA14 2P4 (PA14 2P4 (pmrB); Table S3, […] MH at pH 8.5): 2 µg/mL (≈ 1.51 µM) | MHC [3]: 250 µg/mL | MHC (hemolysis) ([3]; red cells of human): 250 to 1000 µg/mL | MIC S. maltophilia, full MH at pH 7.4 (S. maltophilia; 4 h, pH 7.4): 3 ug/mL | MIC S. maltophilia (S. maltophilia; 4 h, pH 8.5): 2 to 4 µg/mL | MIC S. maltophilia (S. maltophilia; pH 7.4): 2 to 4 µg/mL | MIC S. aureus Newman, full MH at pH 7.4 (S. aureus Newman; 4 h, pH 7.4): 8 ug/mL | MIC S. aureus Newman (S. aureus Newman; 4 h, pH 8.5): 2 µg/mL (≈ 1.51 µM) | MIC S. aureus Newman (S. aureus Newman; pH 7.4): 8 µg/mL (≈ 6.05 µM) | MIC P. aeruginosa PA14, full MH at pH 7.4 (P. aeruginosa PA14; PA14, 4 h, pH 7.4): 3 ug/mL | MIC P. aeruginosa PA14 (P. aeruginosa PA14; PA14, pH 7.4): 2 to 4 µg/mL | MIC P. aeruginosa PA14 (P. aeruginosa PA14; PA14, pH 8.5): 2 µg/mL (≈ 1.51 µM) | MIC B. cenocepacia, full MH at pH 7.4 (B. cenocepacia; 4 h): >32 ug/mL | MIC B. cenocepacia (B. cenocepacia): >32 µg/mL | MIC S. epidermis, full MH at pH 7.4 (S. epidermis; 4 h, pH 7.4): 3 ug/mL | MIC S. epidermis (S. epidermis; 4 h, pH 8.5): 2 µg/mL (≈ 1.51 µM) | MIC S. epidermis (S. epidermis; pH 7.4): 2 to 4 µg/mL
